This note sets out measurements from article PMC3116712 (ACS medicinal chemistry letters, 2011).

Chain of WT A/M2 proton channel (P0DOF5 whole entry, looked up): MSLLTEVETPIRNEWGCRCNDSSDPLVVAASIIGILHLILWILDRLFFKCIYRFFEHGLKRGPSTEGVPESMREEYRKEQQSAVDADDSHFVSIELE

This experiment concerns the target WT A/M2 proton channel (Influenza A virus, UniProt P0DOF5). It counts as cell-based. The following applies: TEVC.
In the case of `O=S(=O)(O)C12CC3CC(CC(C3)C1)C2` [Compound 3, 1-adamantyl sulfonic acid], the “activity against WT A/M2 channel (in words)” value was “inactive”.

Turning to `O=C1CC2(CCCCC2)CC(=O)N1` [Compound 16], the “activity against WT A/M2 channel (in words)” value was “only weakly active”. The value for `NN1C(=O)CC2(CCCCC2)CC1=O` [Compound 17] was “only weakly active”; that for `OC1C2C3CC4C1C1C2CC3C41` (stereo not drawn) [Compound 19] was “only moderate inhibition”; that for `Cl.NC12CC3CC(C1)CC(CO)(C3)O2` [Compound 25] was “not active”. The value for `CC12CC3(O)CC1(C)CC3(O)C2` [Compound 26] was “only moderately active”.
